Reference: patent US8389571B2, “Benzofuran derived HIV protease inhibitors” (Sequoia Pharmaceuticals, Inc., priority 2007, dated 2013)

Columns and labels:
[1] = target: T1, HIV protease (wt) (Human immunodeficiency virus type 1 group M subtype B, UniProt P04585); test: HIV protease inhibitory activity, wild type; type: biochemical
T1 construct: over 45 of the 99 amino acids of the HIV protease monomer

[2] = target: HIV protease Mutant 9 (Human immunodeficiency virus type 1, UniProt P04585); test: HIV protease inhibitory activity, Mutant 9; type: biochemical; conditions: Mutant 9 protease
[3] = target: HIV protease Mutant 8 (Human immunodeficiency virus type 1, UniProt P04585); test: HIV protease inhibitory activity, Mutant 8; type: biochemical; conditions: Mutant 8 protease
[4] = test system: HIV-1 WT; test: Antiviral activity, in vitro drug sensitivity of HIV-1 isolates, WT; type: cell-based; conditions: Human immunodeficiency virus 1
Experimental: (§1) In Vitro Drug Sensitivity of HIV-1 Laboratory Isolates to PIs
(§2) The sensitivities of HIV-1 isolates against compounds of the invention were determined as previously described with minor modifications (Shiraska et al., Proc. Natl. Acad. Sci. USA, 92, 2398-2402 (1995)).

[5] = test system: HIV-1 Mutant 9; test: Antiviral activity, in vitro drug sensitivity of HIV-1 isolates, Mutant 9; type: cell-based; conditions: Human immunodeficiency virus 1, read-out: Antiviral activity IC50 Mutant 9
Experimental: as §1, §2

[6] = test system: HIV-1 Mutant 8; test: Antiviral activity, in vitro drug sensitivity of HIV-1 isolates, Mutant 8; type: cell-based; conditions: Human immunodeficiency virus 1, read-out: Antiviral activity IC50 Mutant 8
Experimental: as §1, §2

[7] = In vivo bioavailability, rat; conditions: 20 mg/kg p.o.
[8] = rat, oral administration; Miller et al., Bioorg Med Chem Lett. 1788-94 (2006); cited from earlier work

Compound	Ki [1]	Ki [2]	Ki [3]	IC50 [4]	IC50 [5]	IC50 [6]	AUC (0-12) [7]	Cmax ([7]; in vivo, po)	Tmax ([7]; in vivo, po)	bioavailability ([7]; in vivo, po)	% F [8]
Cc1nc(COc2ccc(C[C@H](NC(=O)O[C@H]3CO[C@H]4OCC[C@H]43)[C@H](O)CN(CC(C)C)S(=O)(=O)c3ccc4occc4c3)cc2)cs1 [Compound D]	< 0.05 nM	0.055 nM	< 0.05 nM	1.4 nM	32 nM	4.2 nM	11 ugxh/mL	3.51 µM	39.6 min	92%	
Cc1nc(COc2ccc(C[C@H](NC(=O)O[C@H]3CO[C@H]4OCC[C@H]43)[C@H](O)CN(CC(C)C)S(=O)(=O)c3ccc4c(c3)OCO4)cc2)cs1 [GW0385, reference compound]	0.1 nM	0.13 nM	< 0.05 nM	0.8 nM	42 nM	3.2 nM					10%
